Literature values, collected in US6313179A, “Treatment of hyperproliferative skin disorders with C18 to C20 aliphatic alcohols” (Avanir Pharmaceuticals, priority 1998, dated 2001).

Conditions: oral ingestion; U.S. Pat. No. 3,031,376; cited from earlier work
In the case of `CCCCCCCCCCCCCCCCCCCCCCCCCCO` [n-hexacosanol], the “physical performance of athletes” value is given as “improved physical performance of athletes”.
For `CCCCCCCCCCCCCCCCCCCCCCCCCCCCO` [n-octacosanol, reference compound], the “physical performance of athletes” value is given as “improved physical performance of athletes”.
For `CCCCCCCCCCCCCCCCCCCCCCCCO` [n-tetracosanol], the “physical performance of athletes” value is listed as “improved physical performance of athletes”.
In the case of `CCCCCCCCCCCCCCCCCCCCCCCCCCCCCCO` [triacontanol, reference compound], the “physical performance of athletes” value is listed as “improved physical performance of athletes”.
